# Data published in publication PMC3726599, “A Metabolically-Stabilized Phosphonate Analog of Lysophosphatidic Acid Attenuates Collagen-Induced Arthritis” (PLoS ONE, 2013).
# Tests used:
# LPA3 = conditions: Ca++ mobilization, RH7777 cells; kind of constant not given; read-out: inhibition of LPA3; cited from earlier work
# recombinant ATX = biological target: T1, recombinant ATX (Homo sapiens, UniProt Q13822); assay: Amplex Red activity assay, LPC hydrolysis by recombinant ATX (Echelon); type: biochemical; conditions: for % Inhibition at 10 μΜ: BrP-LPA 10 μΜ; for Ki: Cheng-Prusoff from IC50; for IC50: [S] 50 μΜ, Echelon ATX 2 nM, mean±std
# T1 construct: purchased SinoBiological Inc (main data); R&D (additional Km values)
# Experimental: BrP-LPA inhibition was also tested with the more sensitive reagent Amplex Red based on the Amplex™ Red PLD assay kit (Molecular Probes, Interchim, Montluçon, France) originally designed for the measurement of the PLD activity, [49]. All reactions were performed with purified ATX (2 nM) from Echelon at 37°C. The ability of ATX to cleave LPC was detected using a coupled assay that monitors the release of choline using Amplex Red (10 μΜ), choline oxidase (0.2 Units/ml) and horseradish peroxidise (2 Units/ml) The rate of fluorescence increase was measured in a fluorescence plate reader (Tecan Infinite 200 microplate reader from Tecan Trading AG, Switzerland) for up to 80 minutes; the fluorescence increase was linear during that time-frame for all cases. Rates were normalized to control reactions that contained all reaction components except for the test compound.
# The biochemistry of lyso-PLD was assessed by following the kinetics data using a wide panel of different ATX substrates [FS-3, different LPC species (14:0, 16:0, 18:0, 18:1)], three different recombinant ATX proteins (R&D, Sino-Biological and Echelon) and three different ATX activity assays (FS-3, TOOS, Amplex Red). The ATX activity was measured at different substrate concentrations (typically from 1-1000 μM) in order to examine whether ATX follows Michaelis-Menten kinetics. The Michaelis constant (Km) was obtained by fitting the substrate dependence of V (ATX activity) to a rectangular hyperbola using the non-linear regression analysis of the statistical software package Prism 4.0 (GraphPad Software, Inc.). Km and Vmax were evaluated from the rectangular hyperbola curve with the use of GraphPad software.
# For in vitro inhibition measurements, BrP-LPA was dissolved in water as a stock solution (4 mM) and appropriate dilutions were made in water. The inhibition of ATX by BrP-LPA was measured employing 2 nM recombinant ATX, 50 μΜ LPC (14:0, 16:0, 18:0) and 0.01 to 100 μmol/L of BrP-LPA (final concentrations). The in vitro inhibition of ATX by BrP-LPA was evaluated with three different assays (FS-3, Amplex Red, and TOOS). […] BrP-LPA was also tested for its ability to inhibit mouse plasma ATX activity. Diluted mouse plasma was used as the source of ATX and the analysis of inhibition was made with TOOS as the in vitro inhibition assay.
# The inhibition model (competitive, noncompetitive, or mixed type inhibition) was evaluated by graphical analysis with Lineweaver–Burk double reciprocal plots (1/[velocity] versus 1/[substrate]) and Cornish-Bowden plot ([substrate]/[velocity] versus [Inhibitor]). These plots were generated by the measurement of ATX activity in the presence of different BrP-LPA concentrations (0–10 μΜ) and increased amounts of 16:0 LPC (100, 200, 400 μΜ). The inhibition constants (Ki) and IC50 values were determined using the mean values obtained from two independent experiments. The relative remaining ATX activity or LPA levels in the presence of the BrP-LPA was expressed as a percentage of the corresponding control value (ATX activity, LPA levels without inhibitor). The IC50 value was determined graphically by plotting the log concentration of BrP-LPA versus relative remaining ATX activity or LPA levels of each test sample using the sigmoid dose–response fitting method (Prism® software). The IC50 (concentration of BrP-LPA sufficient to inhibit ATX activity or diminish LPA levels by 50%) was calculated by the equation f = y0+a/(1+exp(-(x-x0)/b)) given by SigmaPlot 11.0 (Systat Software, Inc., San Jose, CA, USA).
# Ki was calculated using the equation of Cheng and Prusoff: Ki = IC50/1+[S]/Km, where Ki is the binding affinity of the inhibitor, IC50 is the functional strength of the inhibitor, [S] is substrate concentration and Km is the concentration of substrate at which enzyme activity is half maximal. Whereas the IC50 value for a compound may vary between experiments depending on experimental conditions, Ki is an absolute value. […]
# [1] = system: collagen induced arthritis (CIA); assay: Collagen induced arthritis (CIA) in DBA/1 mice; type: in vivo, mouse
# Experimental: CIA in DBA/1 mice was induced by immunization with collagen type II emulsified in complete Freund's adjuvant essentially as previously described, [43]. Mice were assessed for disease clinical signs two to three times per week. Clinical signs of arthritis were determined using the following scoring system: 0: no evidence of erythema and swelling; 1: erythema and mild swelling confined to the […] or ankle joint; 2: erythema and mild swelling extending from the ankle to the […]; 3: erythema and moderate swelling extending from the ankle to metatarsal joints; 4: erythema and severe swelling encompassing the ankle, foot and digits, or ankylosis of the limb.
# Paraffin-embedded joint tissue samples were sectioned and stained with hematoxylin and eosin as previously described, [44]. Arthritic histopathology in mice was assessed (in a blinded fashion from 3 independent examiners) using a semi-quantitative scoring system as previously described for CIA in a DBA/1 (H-2^q) background. 0: no detectable pathology; 1: hyperplasia of the synovial membrane and presence of polymorphonuclear infiltrates – mild tendonitis may be present; 2: pannus and fibrous tissue formation and focal subchondrial bone erosion: 3: cartilage destruction and bone erosion in multiple foci; 4: extensive cartilage destruction and bone erosion- bone outline structure lost. Presented results refer to an average score of all four joints.
# To examine the therapeutic potential of targeting the ATX/LPA axis in RA, BrP-LPA was injected intraperitoneally twice a week (following immunization boost; Fig. 4A), in groups of mice undergoing the development of collagen induced arthritis (CIA).
# A. Schematic representation of immunization and drug administration schemes. DBA/1 mice subjected to CIA were treated intraperitoneally with vehicle, BrP-LPA (10 mg/kg), or dexamethasone (Dex, 3 mg/kg) twice a week. B–C. […] Data are pooled from two different experiments (n = 10). […] Joint sections were assessed histologically in a blinded manner by three independent examiners. Data are shown as mean joint values per mouse ± SD. […] Levels of CII-specific Abs were determined by ELISA in mouse sera.
# [2] = 10 mg/kg i.p. twice a week, DBA/1 mice
compound,measurement,setting,value
"CCCCCCCCCCCCCCCC(=O)OC[C@@H](O)CC(Br)P(=O)(O)O (stereo partly drawn) [BrP-LPA, 1-bromo-3(S)-hydroxy-4-(palmitoyloxy)butyl-phosphonate]",IC50,LPA3,1200 nM
same,% Inhibition at 10 μΜ,recombinant ATX; 14:0 LPC 50 μΜ,75%
same,Ki,recombinant ATX; 14:0 LPC,1000 ± 400 nM
same,% Inhibition at 10 μΜ,recombinant ATX; 18:0 LPC 50 μΜ,75%
same,Ki,recombinant ATX; 18:0 LPC,800 ± 200 nM
same,IC50,recombinant ATX; substrate 14:0 LPC,1600 ± 100 nM
same,IC50,recombinant ATX; substrate 18:0 LPC,1100 ± 100 nM
same,development of arthritis (number of arthritic limbs per mouse),[1]; [2],development of arthritis in significantly fewer mice
same,severity per arthritic limb,[1]; [2],reduced severity per arthritic limb
same,histopathological analysis of the joints,"[1]; 10 mg/kg i.p. twice a week, H&E",marked decreased inflammation and synovial hyperplasia
same,gross physiology / systemic side effects,"[1]; 10 mg/kg i.p. twice a week, data not shown",no appreciable alternation of gross physiology
same,levels of anti-collagen antibodies,[1]; ELISA in mouse sera,did not interfere with the levels of anti-collagen antibodies
same,BrP-LPA levels in joint tissue versus liver tissue and plasma,[1]; data not shown,persist for longer in joint tissue
same,LPA (or LPC) levels in plasma or joint tissue at end of monitoring,"[1]; three days after the last injection, data not shown",no changes in LPA (or LPC) levels were detected
